Source: patent US20020012620A1, “BACTERIAL LEACHING OF COPPER AND ZINC WITHOUT IRON LEACHING” (priority 1998, published 2002)
“And” between values parts separate entries of the source, which are not always exact repeats. Identical values can stand only once.

Tests used:
[1] = tested on: Thiobacillus ferrooxidans; experiment: Fe^2+ oxidation by resting cells (oxygen consumption rate, Oxygraph); format: cell-based; settings: for inhibition of Fe^2+ oxidation: pH 3
Description: For the resting cell experiments, cells from large scale growth were filtered through Whatman™ No. 1 filter paper under suction before centrifugation at 8000× g. The cells were washed in 0.1 M β-alanine-H2SO4 (pH 2.3) and suspended in the same buffer to a concentration of 50 mg wet cells per ml.
The rate of ferrous iron and sulfur oxidation by the resting cells was determined by the oxygen consumption rate (nmol O2/min) in a Gilson™ Oxygraph with a Clark™ oxygen electrode at 25° C. The reaction mixture in a total volume of 1.2 ml contained 10-100 μl cell suspension, 0.5 μmol FeSO4 or 0.1 ml elemental sulfur suspension (32 mg in 500 ppm Tween-80™) and 0.1 M β-alanine-H2SO4 at pH 3.0 (standard condition) or varying inhibitory concentrations of salts at pH 3.0, as described below. Specifically, the effect of standard biological oxidation inhibitors, sodium azide and sodium cyanide in 0.1 M β-alanine-H2SO4 at pH 3.0 was studied.

[2] = tested on: Thiobacillus ferrooxidans; experiment: S^0 oxidation by resting cells (oxygen consumption rate, Oxygraph); format: cell-based
[3] = tested on: T. thiooxidans; experiment: Bacterial leaching of flotation tailings with T. thiooxidans; format: cell-based, Thiobacillus thiooxidans
Description: (§1) Bacterial leaching was performed in shake flask experiments with 250 ml Erlenmeyer™ flasks containing 95 ml of HP medium with and without inhibitors unless otherwise specified, 4 ml of inoculum (Fe^2+-grown T. ferrooxidans, S^0-grown T. thiooxidans or both) and 5 g of floatation tailings supplied by Cominco Research were used, as described below. The flasks were grown at 26° C. on a rotary shaker at 150 rpm for 14 days. At various time intervals, 5 ml samples were taken to determine the concentrations of dissolved zinc and iron in the leachate as well as the percentage of zinc and iron remaining in the precipitate (after filtration of the leachate).

[4] = tested on: bioleaching of chalcopyrite (CuFeS2) and sphalerite mixture; format: cell-based
Description: as §1

[5] = tested on: bacterial leaching of a complex sulfide ore; experiment: Bacterial leaching of a complex sulfide ore from the Flin Flon mine; format: cell-based, Thiobacillus thiooxidans SM-7
Description: In this embodiment of the invention, bacterial strains Thiobacillus ferrooxidans SM-4 and Thiobacillus thiooxidans SM-6 (FIGS. 1, 3 and 4 and Table 2) or SM-7 (Table 5) were used. Specifically, T. ferrooxidans was grown on Fe^2+ or S^0 while T. thiooxidans was grown only on sulfur. HP medium, described in Suzuki et al, 1990, Appl Environ Microbiol 56:1620-1626, consisting of: 0.4 g (NH4)2SO4, 0.1 g K2HPO4, 0.4 g MgSO4.7H2O per liter, adjusted to pH 2.3 with H2SO4 was used for growth of bacteria on Fe^2+, for growth in a Micro-oxymax™ respirometer (both Fe^2+ and S^0 growth), and for mineral leaching experiments, as described below. For growth on Fe^2+, 33.3 g FeSO4.7H2O per liter (pH 2.3, filter-sterilized) was added to the above-described HP medium. Cultures were grown in shake flasks (100 ml) with 10% inoculum (v/v) in 250 ml Erlenmeyer™ flasks at 25° C. at 120 rpm for 24 hours. It is of note that for large scale growth, medium volume and flask size were increased.
. In fact, the highest level of Cu leaching using this ore is nearly five times greater than previously reported values in the absence of additional anions (Lizama and Suzuki, 1988, Biotechnol Bioeng 32: 110-116). […] That is, copper and zinc can be recovered from a complex ore without the need for separation simply by replacing the media following completion of copper leaching because of this lag time.

[6] = tested on: T. thiooxidans
Description: (§2) Growth inhibition studies were carried out in a Micro-oxymax™ respirometer at Cominco Research in Trail, British Columbia, wherein the O2 and CO2 consumption (at 52 minute intervals) of cultures at 26° C. were monitored over time (45-50 hours). Each flask contained a total volume of 100 ml, comprised of 5 ml inoculum culture plus 95 ml HP medium with varying concentrations of inhibitors plus Fe^2+ or S^0 as growth substrate (33.3 g FeSO4.7H2O or 25 g sulfur per liter). In the S^0 medium, HP medium was supplemented with 18 mg FeSO4.7H2O per liter. A growth curve was generated from the monitored O2 and CO2 consumption rates over time, as described below.

[7] = tested on: T. ferrooxidans
Description: as §2

[8] = tested on: T. ferrooxidans; format: cell-based, Thiobacillus ferrooxidans
Description: as §1

[9] = tested on: T. ferrooxidans and T. thiooxidans
Description: as §1

[10] = Acidithiobacillus ferrooxidans, pH 3, read-out: inhibition of Fe^2+ oxidation
[11] = Acidithiobacillus ferrooxidans, pH 3, read-out: inhibition of S^0 oxidation

Molecule | inhibition of Fe^2+ oxidation [1] | inhibition of S^0 oxidation ([2]; pH 3) [%] | Fe leaching [3] | extraction of Zn [4] | Cu leaching [5] | Zn leaching [5] | S^0 oxidation during growth [6] | Fe^2+ oxidation during growth [7] | reduction in Zn leaching [8] [%] | iron oxidation [4] | Fe leaching [9] | inhibition of Fe leaching relative to Zn leaching [9] | inhibition at 10 µM [1, 10] [%] | inhibition at 50 µM [1, 10] [%] | inhibition at 10 µM [2, 11] [%] | inhibition at 50 µM [2, 11] [%] | Fe leaching [8] | Zn leaching [8]
potassium chloride | 30% and 40% | 10 | reduced Fe leaching at high concentrations, albeit to a much smaller degree | stimulated | stimulation | stimulation | stimulated | inhibited | – | – | – | – | – | – | – | – | – | –
potassium phosphate | 60% | – | strongly inhibited | slightly reduced | stimulation | stimulation | stimulated | inhibited | 50 | reduced | no Fe leaching | most effective inhibitor of Fe leaching without inhibiting Zn leaching extensively | – | – | – | – | – | –
[N-]=[N+]=[N-] [sodium azide, reference compound] | – | – | – | – | – | – | – | – | – | – | – | – | 90 | 95 | 35 | 90 | – | –
potassium nitrate | 90% and 100% | – | reduced Fe leaching at high concentrations, albeit to a much smaller degree | – | – | – | – | – | – | – | – | – | – | – | – | – | reduced the Fe leaching similar to phosphate | considerably inhibited
